# According to the supplement of paper PMC11061612:
# Assays:
# Carboplatin = compound: C1CC(C1)(C(=O)[O-])C(=O)[O-].N.N.[Pt+2] [Carboplatin]; conditions: max 10 µM
# Procedure, shortened: (§1)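 Plates with 1536 wells received cancer cell lines in 7.5 μl of DMEM/F12 or RPMI containing 10% FBS. After 24 hours at 37°C and 5% CO2, cells were dosed for 72 hours with final DMSO typically 0.2%, and viability was read by CellTiter-Glo 2.0 luminescence scaled between blank-well and DMSO-well means. The single-agent IC50 was taken from a logistic fit of the dose responses made with a non-linear mixed effects model, that logistic curve having two parameters.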
# AZD5363 = compound: C1CN(CCC1(C(=O)N[C@@H](CCO)C2=CC=C(C=C2)Cl)N)C3=NC=NC4=C3C=CN4 [AZD5363]; conditions: max 10 µM
# Procedure, shortened: as §1
# AZD1775 = compound: C=CCn1c(=O)c2cnc(Nc3ccc(N4CCN(C)CC4)cc3)nc2n1-c1cccc(C(C)(C)O)n1 [AZD1775]; conditions: max 3 µM
# Procedure, shortened: as §1
# Trametinib = compound: CC(=O)Nc1cccc(-n2c(=O)n(C3CC3)c(=O)c3c(Nc4ccc(I)cc4F)n(C)c(=O)c(C)c32)c1 [Trametinib]; conditions: max 1 µM
# Procedure, shortened: as §1
# Paclitaxel = compound: CC(=O)O[C@H]1C(=O)[C@@]2(C)[C@H]([C@H](OC(=O)c3ccccc3)[C@]3(O)C[C@H](OC(=O)[C@H](O)[C@@H](NC(=O)c4ccccc4)c4ccccc4)C(C)=C1C3(C)C)[C@]1(OC(C)=O)CO[C@@H]1C[C@@H]2O [Paclitaxel]; conditions: max 3 µM
# Procedure, shortened: as §1
# Palbociclib = compound: CC(=O)c1c(C)c2cnc(Nc3ccc(N4CCNCC4)cn3)nc2n(C2CCCC2)c1=O [Palbociclib]; conditions: max 10 µM
# Procedure, shortened: as §1
# AZD1390 = compound: CC(C)n1c(=O)n(C)c2cnc3cc(F)c(-c4ccc(OCCCN5CCCCC5)nc4)cc3c21 [AZD1390]; conditions: max 0.3 µM
# Procedure, shortened: as §1
# Venetoclax = compound: CC1(C)CCC(CN2CCN(c3ccc(C(=O)NS(=O)(=O)c4ccc(NCC5CCOCC5)c([N+](=O)[O-])c4)c(Oc4cnc5[nH]ccc5c4)c3)CC2)=C(c2ccc(Cl)cc2)C1 [Venetoclax]; conditions: max 1 µM
# Procedure, shortened: as §1
# Dasatinib = compound: CC1=C(C(=CC=C1)Cl)NC(=O)C2=CN=C(S2)NC3=CC(=NC(=N3)C)N4CCN(CC4)CCO [Dasatinib]; conditions: max 2 µM
# Procedure, shortened: as §1
# SG3199 = compound: CC1=CN2[C@@H](C1)C=NC3=CC(=C(C=C3C2=O)OC)OCCCCCOC4=C(C=C5C(=C4)N=C[C@@H]6CC(=CN6C5=O)C)OC [SG3199]; conditions: max 0.001 µM
# Procedure, shortened: as §1
# AZD2811 = compound: CCN(CCO)CCCOc1ccc2c(Nc3cc(CC(=O)Nc4cccc(F)c4)[nH]n3)ncnc2c1 [AZD2811]; conditions: max 1 µM
# Procedure, shortened: as §1
# SN-38 = compound: CCc1c2c(nc3ccc(O)cc13)-c1cc3c(c(=O)n1C2)COC(=O)[C@]3(O)CC [SN-38]; conditions: max 0.3 µM
# Procedure, shortened: as §1
# AZD0156 = compound: CN(C)CCCOc1ccc(-c2ccc3ncc4c(c3c2)n(C2CCOCC2)c(=O)n4C)cn1 [AZD0156]; conditions: max 3 µM
# Procedure, shortened: as §1
# AZD4320 = compound: CN(CC[C@H](CSC1=CC=CC=C1)NC2=C(C=C(C=C2)S(=O)(=O)NC(=O)C3=CC=C(C=C3)N4CCC(CC4)[C@H](C5=CC=CC=C5C6=CC=C(C=C6)Cl)O)S(=O)(=O)C(F)(F)F)CCO [AZD4320]; conditions: max 1 µM
# Procedure, shortened: as §1
# Alisertib = compound: COc1cc(Nc2ncc3c(n2)-c2ccc(Cl)cc2C(c2c(F)cccc2OC)=NC3)ccc1C(=O)O [Alisertib]; conditions: max 10 µM
# Procedure, shortened: as §1
# Etoposide = compound: COc1cc([C@@H]2c3cc4c(cc3[C@@H](O[C@@H]3O[C@@H]5CO[C@@H](C)O[C@H]5[C@H](O)[C@H]3O)[C@H]3COC(=O)[C@H]23)OCO4)cc(OC)c1O [Etoposide]; conditions: max 10 µM
# Procedure, shortened: as §1
# Gefitinib = compound: COc1cc2ncnc(Nc3ccc(F)c(Cl)c3)c2cc1OCCCN1CCOCC1 [Gefitinib]; conditions: max 10 µM
# Procedure, shortened: as §1
# Prexasertib = compound: COc1cccc(OCCCN)c1-c1cc(Nc2cnc(C#N)cn2)n[nH]1 [Prexasertib]; conditions: max 1 µM
# Procedure, shortened: as §1
# Doxorubicin = compound: COc1cccc2c1C(=O)c1c(O)c3c(c(O)c1C2=O)C[C@@](O)(C(=O)CO)C[C@@H]3O[C@H]1C[C@H](N)[C@H](O)[C@H](C)O1 [Doxorubicin]; conditions: max 1 µM
# Procedure, shortened: as §1
# AZD5153 = compound: COc1nnc2ccc(N3CCC(c4ccc(OCCN5CCN(C)C(=O)[C@H]5C)cc4)CC3)nn12 [AZD5153]; conditions: max 1 µM
# Procedure, shortened: as §1
# Lapatinib = compound: CS(=O)(=O)CCNCc1ccc(-c2ccc3ncnc(Nc4ccc(OCc5cccc(F)c5)c(Cl)c4)c3c2)o1 [Lapatinib]; conditions: max 10 µM
# Procedure, shortened: as §1
# AZD8186 = compound: C[C@@H](Nc1cc(F)cc(F)c1)c1cc(C(=O)N(C)C)cc2c(=O)cc(N3CCOCC3)oc12 [AZD8186]; conditions: max 10 µM
# Procedure, shortened: as §1
# Crizotinib = compound: C[C@@H](Oc1cc(-c2cnn(C3CCNCC3)c2)cnc1N)c1c(Cl)ccc(F)c1Cl [Crizotinib]; conditions: max 10 µM
# Procedure, shortened: as §1
# Savolitinib = compound: C[C@@H](c1ccc2nccn2c1)n1nnc2ncc(-c3cnn(C)c3)nc21 [Savolitinib]; conditions: max 1 µM
# Procedure, shortened: as §1
# AZD6738 = compound: C[C@@H]1COCCN1C2=NC(=NC(=C2)C3(CC3)[S@](=N)(=O)C)C4=C5C=CNC5=NC=C4 [AZD6738]; conditions: max 10 µM
# Procedure, shortened: as §1
# AZD5991 = compound: Cc1c2c(nn1C)CSCc1cc(n(C)n1)CSc1cc(c3ccccc3c1)OCCCc1c(C(=O)O)n(C)c3c-2c(Cl)ccc13 [AZD5991]; conditions: max 1 µM
# Procedure, shortened: as §1
# AZD7648 = compound: Cc1cc2ncnn2cc1Nc1ncc2c(n1)n(C1CCOCC1)c(=O)n2C [AZD7648]; conditions: max 10 µM
# Procedure, shortened: as §1
# Taselisib = compound: Cc1nc(-c2cn3c(n2)-c2ccc(-c4cnn(C(C)(C)C(N)=O)c4)cc2OCC3)n(C(C)C)n1 [Taselisib]; conditions: max 10 µM
# Procedure, shortened: as §1
# Selumetinib = compound: Cn1cnc2c(F)c(Nc3ccc(Br)cc3Cl)c(C(=O)NOCCO)cc21 [Selumetinib]; conditions: max 10 µM
# Procedure, shortened: as §1
# SRA737 = compound: N#Cc1cnc(Nc2cc(NC[C@H]3CNCCO3)c(C(F)(F)F)cn2)cn1 [SRA737]; conditions: max 10 µM
# Procedure, shortened: as §1
# MK-2206 = compound: NC1(c2ccc(-c3nc4ccn5c(=O)[nH]nc5c4cc3-c3ccccc3)cc2)CCC1 [MK-2206]; conditions: max 10 µM
# Procedure, shortened: as §1
# Gemcitabine = compound: Nc1ccn([C@@H]2O[C@H](CO)[C@@H](O)C2(F)F)c(=O)n1 [Gemcitabine]; conditions: max 0.3 µM
# Procedure, shortened: as §1
# [1] = compound: O=C(Nc1ccc2[nH]nc(-c3ccncc3)c2c1)[C@@H]1CCN(CC(=O)N2CCN(c3ccc(-c4ncccn4)cc3)CC2)C1; conditions: max 5 µM
# Procedure, shortened: as §1
# Olaparib = compound: O=C(c1cc(Cc2n[nH]c(=O)c3ccccc23)ccc1F)N1CCN(C(=O)C2CC2)CC1 [Olaparib]; conditions: max 10 µM
# Procedure, shortened: as §1
# 5-Fluorouracil = compound: O=c1[nH]cc(F)c(=O)[nH]1 [5-Fluorouracil]; conditions: max 20 µM
# Procedure, shortened: as §1
Cell Line,"IC50, cell viability 72 h (Carboplatin) [µM]","IC50, cell viability 72 h (AZD5363) [µM]","IC50, cell viability 72 h (AZD1775) [µM]","IC50, cell viability 72 h (Trametinib) [µM]","IC50, cell viability 72 h (Paclitaxel) [µM]","IC50, cell viability 72 h (Palbociclib) [µM]","IC50, cell viability 72 h (AZD1390) [µM]","IC50, cell viability 72 h (Venetoclax) [µM]","IC50, cell viability 72 h (Dasatinib) [µM]","IC50, cell viability 72 h (SG3199) [µM]","IC50, cell viability 72 h (AZD2811) [µM]","IC50, cell viability 72 h (SN-38) [µM]","IC50, cell viability 72 h (AZD0156) [µM]","IC50, cell viability 72 h (AZD4320) [µM]","IC50, cell viability 72 h (Alisertib) [µM]","IC50, cell viability 72 h (Etoposide) [µM]","IC50, cell viability 72 h (Gefitinib) [µM]","IC50, cell viability 72 h (Prexasertib) [µM]","IC50, cell viability 72 h (Doxorubicin) [µM]","IC50, cell viability 72 h (AZD5153) [µM]","IC50, cell viability 72 h (Lapatinib) [µM]","IC50, cell viability 72 h (AZD8186) [µM]","IC50, cell viability 72 h (Crizotinib) [µM]","IC50, cell viability 72 h (Savolitinib) [µM]","IC50, cell viability 72 h (AZD6738) [µM]","IC50, cell viability 72 h (AZD5991) [µM]","IC50, cell viability 72 h (AZD7648) [µM]","IC50, cell viability 72 h (Taselisib) [µM]","IC50, cell viability 72 h (Selumetinib) [µM]","IC50, cell viability 72 h (SRA737) [µM]","IC50, cell viability 72 h (MK-2206) [µM]","IC50, cell viability 72 h (Gemcitabine) [µM]","IC50, cell viability 72 h [1] [µM]","IC50, cell viability 72 h (Olaparib) [µM]","IC50, cell viability 72 h (5-Fluorouracil) [µM]"
HCC70 (Breast Carcinoma),> 10,2,1,> 1,0.143,> 10,> 0.3,> 1,> 2,> 0.001,0.224,> 0.3,> 3,> 1,> 10,> 10,> 10,0.0297,> 1,> 1,> 10,2.02,> 10,> 1,3,0.201,> 10,4.26,> 10,5.46,1.92,> 0.3,> 5,> 10,> 20
HCC1395 (Breast Carcinoma),> 10,> 10,0.965,> 1,0.206,> 10,> 0.3,> 1,> 2,> 0.001,> 1,0.173,> 3,> 1,> 10,> 10,> 10,0.00908,> 1,> 1,> 10,> 10,> 10,> 1,2.79,> 1,> 10,> 10,> 10,2.95,> 10,> 0.3,> 5,> 10,> 20
IM-9 (Non-Cancerous),> 10,6.7,0.205,0.00611,0.00497,4.92,> 0.3,> 1,> 2,> 0.001,0.0713,0.00253,> 3,0.769,0.0265,0.0974,> 10,0.0124,0.0528,0.0894,7.53,> 10,0.819,> 1,1.04,0.667,> 10,> 10,0.218,1.52,> 10,0.00197,0.0727,> 10,5.02
JHH-2 (Hepatocellular Carcinoma),> 10,4.77,1.86,0.181,0.365,> 10,> 0.3,> 1,0.188,> 0.001,> 1,0.0776,> 3,> 1,> 10,> 10,> 10,0.0575,> 1,> 1,> 10,0.297,> 10,> 1,6.8,> 1,> 10,3.05,> 10,> 10,5.26,> 0.3,3.44,> 10,> 20
JHU-022 (Oral Cavity Carcinoma),> 10,> 10,1.64,0.219,2.09,> 10,> 0.3,> 1,0.431,> 0.001,> 1,0.0357,> 3,> 1,> 10,> 10,0.811,0.0944,0.505,> 1,1.93,> 10,> 10,> 1,> 10,> 1,> 10,0.515,5.56,> 10,> 10,0.278,2.72,> 10,> 20
